# Data as given in patent EP4711368A1 (priority 2023, dated 2024).
# Read-outs that look alike come from different tables or passages of the source.
# Tests used:
# SD rats [1] = assay: animal or person; assay type: in vivo; settings: iv; for Minimal effective anesthetic dose / Onset time / Righting feflex duration / Sedation Duration / Minimal effective analgesic dose: rat, in vivo; for minimal effective dose: Rattus norvegicus
# SD rats [2] = settings: rat, in vivo; for MLD: iv
# [3] = read-out: Minimal effective analgesic dose
# [4] = read-out: Minimal effective anesthetic dose
SMILES,Minimal effective anesthetic dose (SD rats [1]) [mg/kg],Onset time (SD rats [1]) [min],Righting feflex duration (SD rats [1]) [min],Sedation Duration (SD rats [1]) [min],TI (SD rats [2]),MLD (SD rats [2]) [mg/kg],minimal effective dose (SD rats [1]; [3]) [mg/kg],minimal effective dose (SD rats [1]; [4]) [mg/kg],TI (SD rats [2]; SD),MLD (SD rats [2]; SD) [mg/kg],Minimal effective analgesic dose (SD rats [1]) [mg/kg]
C=CC(C)(C)OC(=O)CCC1N=C(c2ccccn2)c2cc(Br)ccc2N(C)C1=O (stereo not drawn) [Compound 19],1.0,0.4 to 1.0,1.2 to 5.5,9.7 to 14.8,>1.9,>1.9,,,,,
CC(C)C(C)OC(=O)CN1N=C(c2ccccn2)c2cc(Br)ccc2N(C)C1=O (stereo not drawn) [Compound 249],,0.50 to 0.62,6.55 to 13.37,23.30 to 42.37,,,15,10,2,20,
CC(F)C(=O)OCCN1N=C(c2ccccn2)c2cc(Br)ccc2N(C)C1=O (stereo not drawn) [Compound 303],,0.43,14.30,74.88,,,,20,>1,>20,
CC(C)OC(=O)CN1C2=NCCN2N=C(c2ccccn2)c2cc(Br)ccc21 [Compound 325],,0.65,3.65,59.22,,,40,40,>1,>40,
CCC(C)(C)OC(=O)CN1N=C(c2ccccn2)c2cc(Br)ccc2N(C)C1=O [Compound 255],,0.53 to 0.97,12.27 to 13.62,43.43 to 66.14,,,20,15,2,30,
Cc1cnc2n1-c1ccc(Br)cc1C(c1ccccn1)=NC2COC(=O)c1ccccc1 (stereo not drawn) [Compound 191],5.0,0.45 to 0.53,0.7 to 12.8,53.5 to 155.3,6.8,34.0,,,,,20
CN1C(=O)C(CCC(=O)OC2(C)COC2)N=C(c2ccccn2)c2cc(Br)ccc21 (stereo not drawn) [Compound 14],0.5,0.2 to 0.7,0.6 to 3.2,3.5 to 7.0,>2,>1,,,,,
Cc1cnc2n1-c1ccc(Br)cc1C(c1ccccn1)=NC2CCOC(=O)C1COC1 (stereo not drawn) [Compound 153],7.5,0.3 to 0.4,2.9 to 5.8,20.0 to 21.9,2.7,20,,,,,
Cc1cnc2n1-c1ccc(Br)cc1C(c1ccccn1)=NN2COC(=O)N(C)C [Compound 320],,0.65 to 0.92,2.03 to 5.98,,,,15,15,2,30,
C#C[C@H](C)OC(=O)CN1N=C(c2ccccn2)c2cc(Br)ccc2N(C)C1=O [Compound 252],,0.43,2.92 to 5.05,9.95 to 10.58,,,30,20,2,40,
COc1nonc1CCN1N=C(c2ccccn2)c2cc(Br)ccc2N(C)C1=O [Compound 273],,0.25 to 0.27,2.38 to 9.68,43.97 to 44.82,,,,10,>2,>20,
CC(C)Oc1nonc1CCN1N=C(c2ccccn2)c2cc(Br)ccc2N(C)C1=O [Compound 275],,0.93 to 4.90,6.37 to 17.25,,,,,30,>2,>60,
CC(C)n1nnnc1CCN1N=C(c2ccccn2)c2cc(Br)ccc2N(C)C1=O [Compound 266],,0.40 to 0.52,0.58 to 4.00,12.07 to 16.32,,15,,5,3,,
CN(C)C(=O)OCN1N=C(c2ccccn2)c2cc(Br)ccc2N(C)C1=O [Compound 291],,0.65 to 0.92,2.03 to 5.98,,,,15,15,2,30,
CCN(C)C(=O)OCN1N=C(c2ccccn2)c2cc(Br)ccc2N(C)C1=O [Compound 292],,0.40,2.75,46.82,,,20,20,1.5,30,
Cc1cnc2n1-c1ccc(Br)cc1C(c1ccccn1)=NC2COS(=O)c1ccccc1 (stereo not drawn) [Compound 195],7.5,0.2 to 0.5,5.3 to 76.6,78.5 to 195.4,>2.9,>21.8,,,,,21.8
